# Legend:
# taq polymerase = biological target: T1, taq polymerase (Thermus aquaticus, UniProt P19821); assay: AZT included in the PCR reaction mixture in place of dT (TaqMan PCR step); assay type: biochemical
# T1 construct: purchased Perkin Elmer PE 4304437
# From the text: Next, an aliquot of the cDNA formed in the RT step above is brought into the Taqman® instrument (PE Model 7700) and put into a reaction mixture which contains Taqman® Universal master mix (taq polymerase in buffer), beta actin-specific forward primer, beta actin-specific reverse primer, and beta actin Taqman® probe. The PCR step takes place in the instrument under standard Taqman® PCR conditions. Although, as described above, the present method is depicted as a two test tube reaction, one skilled in the art will realize that these steps can be combined in a single reaction vessel.
# The transcriptase reaction was initiated by placing the reaction mixture in a MWG Thermocycler, or equivalent, under thermocycling conditions at 25° C. for 10 minutes, then at 37° C. for 60 minutes, and finally at 95° C. for 5 minutes. This final thermocycling step deactivated the rHIV RT. Next 5 μL of the post-thermocycle RT reaction mixture, which presumably contained cDNA, were added to 45 μL of the Master Mix solution. The Master Mix Solution contained 25 μL 2×Taqman Universal Master Mix, 5 μL beta Actin Forward Primer, 5 μL Beta Actin Reverse Primer and […]. Thus, the total PCR reaction mixture contained 50 μL. […]
# rHIV RT = biological target: T2, rHIV RT (Human immunodeficiency virus type 1 group M subtype B, UniProt P03366); assay: TaqMan real-time RT-PCR assay of rHIV RT inhibition by a test agent; assay type: biochemical, HIV
# T2 construct: rHIV RT—Worthington Biochemical catalogue No. 5006 (500 U at 12.5 U/μL); purchased Worthington Biochemical 5006
# Procedure: In this regard, oligo dT is used as a template for rHIV RT. Oligo dT is complementary to the polyadenylated RNA-component of the total human heart RNA which present in the reaction mixture. rHIV RT forms cDNA from the oligo dT/RNA complex in the presence of dNTP nucleotides.
# Thus, the temperature cycling conditions for rHIV RT were about 25° C. for 10 minutes, followed by about 37° C. for 60 minutes, and finally 95° C. for 5 minutes. At 95° C., the activity of rHIV RT was destroyed.
# In this context, the test agent preferably is added when the template RNA, the primer which is complementary to the template RNA, and the dNTPs are mixed in the presence of the sample. Accordingly, although the sample may contain active RT, cDNA transcription by the RT can be inhibited by the presence of the test agent in the reaction mixture.
# The inhibiting properties of the test agent are reflected in an increase in CT value for the sample which contains the test agent.
# An rHIV RT solution (Master Mix solution)was prepared which contained 5 μL 10× RT reaction buffer, 11 μL 25 mM MgCl2, 10 μL 10 mM dNTP working stock solution, 2.5 μL 50 μM oligo dT, 1 μL RNAse inhibitor and 1.25 μL rHIV RT. The total volume of the Master Mix solution was 30.75 μL.
# were added to 30.75 μL of the Master Mix solution. Thus, the reaction mixture contained 50 μL total solution volume.
# The controls for the present example included a positive control containing 18.25 μL water plus 1 μL RNA, and a negative control containing 19.25 μL water. […]
# [1] = AZT 1.25 mM down to 250 μM in RT reaction mixture with a fixed concentration of dT, all concentrations
# T1 sequence (P19821 whole entry): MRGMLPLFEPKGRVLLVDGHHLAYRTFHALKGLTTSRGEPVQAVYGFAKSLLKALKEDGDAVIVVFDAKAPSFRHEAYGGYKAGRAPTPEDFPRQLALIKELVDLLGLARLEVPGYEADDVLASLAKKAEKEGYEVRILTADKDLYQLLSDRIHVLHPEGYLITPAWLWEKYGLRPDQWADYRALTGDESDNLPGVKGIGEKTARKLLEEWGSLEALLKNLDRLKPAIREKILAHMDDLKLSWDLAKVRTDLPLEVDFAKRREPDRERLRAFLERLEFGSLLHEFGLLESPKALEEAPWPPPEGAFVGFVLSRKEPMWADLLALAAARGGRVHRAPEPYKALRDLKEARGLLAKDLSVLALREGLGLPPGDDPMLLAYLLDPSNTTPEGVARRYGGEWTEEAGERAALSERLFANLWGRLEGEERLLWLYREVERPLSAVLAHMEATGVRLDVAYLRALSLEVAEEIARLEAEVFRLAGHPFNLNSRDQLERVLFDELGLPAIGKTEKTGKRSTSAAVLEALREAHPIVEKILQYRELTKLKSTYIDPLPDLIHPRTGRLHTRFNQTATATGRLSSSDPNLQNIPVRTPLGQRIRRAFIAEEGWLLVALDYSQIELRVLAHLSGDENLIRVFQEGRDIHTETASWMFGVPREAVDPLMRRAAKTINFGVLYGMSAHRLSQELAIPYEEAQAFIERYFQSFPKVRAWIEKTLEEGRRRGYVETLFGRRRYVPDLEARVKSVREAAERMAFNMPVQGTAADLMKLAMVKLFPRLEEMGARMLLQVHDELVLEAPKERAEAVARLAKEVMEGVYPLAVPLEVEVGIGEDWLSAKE
structure (smiles),measurement,setting,value
Cc1cn([C@H]2C[C@H](N=[N+]=[N-])[C@@H](CO)O2)c(=O)[nH]c1=O [AZT],amplification of the cDNA after the PCR step,taq polymerase,NO amplification
same,amplification of cDNA after the PCR step,rHIV RT; AZT 250 μM to 1.25 mM added to the rHIV-RT reaction mixture in place of dT,no amplification of cDNA was observed
same,inhibition of activity,rHIV RT; [1],100%
same,observed CT,rHIV RT; [1],greater than 40 cycles

# Reference: patent US6664065B2, “Measuring viral reverse transcriptase activity” (priority 2000, dated 2003)
